Experimental data: PMC12603070, “A high-throughput screening approach to discover potential colorectal cancer chemotherapeutics: repurposing drugs to identify novel disruptors of 14-3-3 proteins” (Cell Death & Disease, 2025)
Counter-ions that a name gives are not always drawn. Like-named read-outs stand apart in the source and are kept apart here.

Legend:
HT-29 cells = experiment: Hoechst/propidium iodide cell death assay in HT-29; type: cell-based, human; settings: for cytotoxicity at 20 µM: Homo sapiens
Source text: (§1) A high-content imaging system (PerkinElmer; Operetta CLS), was used to quantify cell death and apoptosis by calculating the number of propidium iodide-positive cells relative to Hoechst-positive cells, and the number of Annexin V-positive cells relative to Hoechst-positive cells, respectively.

[1] = target: T1, 14-3-3ζ:BAD-112-136F interactions (Homo sapiens, UniProt P63104); experiment: BRET sensor screen for disruption of 14-3-3ζ-Rluc8:BAD-112-136F-mCitrine in living NIH-3T3 cells; type: cell-based, murine; parameters: inhibition: dose or concentration left out as unconfirmed; BRET reduction on NIH-3T3: unit not given here; settings: for inhibition / inhibition at 20 µM: NIH3T3, 3 h
T1 construct: expressed in transfected cells; host or cells: NIH-3T3 fibroblasts, bi-directional pBI-CMV1 plasmid
T1 sequence (P63104 1-245): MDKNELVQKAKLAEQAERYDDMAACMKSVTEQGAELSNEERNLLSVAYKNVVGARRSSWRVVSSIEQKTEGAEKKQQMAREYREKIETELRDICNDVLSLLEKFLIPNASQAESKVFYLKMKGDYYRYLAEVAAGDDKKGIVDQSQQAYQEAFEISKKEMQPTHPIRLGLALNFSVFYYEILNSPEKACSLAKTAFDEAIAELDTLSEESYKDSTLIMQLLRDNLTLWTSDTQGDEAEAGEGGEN
Protocol: The Z’-score, which evaluates the robustness of an HTS assay readout, was calculated according to standard protocols. For the HTS, 384-well plates were coated with 100 μg/mL poly-L-ornithine (Sigma, Missouri, United States; #P3655) overnight at 37 °C, followed by rinsing with sterilized water. NIH-3T3 cells were transfected with the BRET sensor two days prior to experimentation, followed by replating onto the pre-coated 384-well plates at a density of 20,000 cells/well. After 24 h of incubation at 37 °C, growth media was replaced by Krebs buffer (pH 7.4).

NIH-3T3 cells = experiment: Hoechst/propidium iodide cell death assay in NIH-3T3; type: cell-based; settings: for cytotoxicity at 20 µM: Mus musculus, NIH3T3, 24 h
Source text: as §1

[2] = HT-29, 24 h, 20 µM, 24 h, read-out: Percentage of cell death % 24h HT-29
[3] = HT-29, 48 h, HT-29, 48h, 20 μM, read-out: Percentage of cell death % 48h, HT-29
[4] = NIH-3T3 cells, hits from the primary screen, read-out: BRET reduction on NIH-3T3
[5] = NIH-3T3 expressing BRET sensor, 20 µM, 3 h, read-out: BRET reduction on NIH-3T3
[6] = 20 µM, 24 h, read-out: Percentage of cell death % 24h NIH3t3
[7] = NIH-3T3 cells, hits from the primary screen
[8] = NIH-3T3 expressing BRET sensor, 20 µM, 3 h

Row | Structure (SMILES) | inhibition [1, 4] [%] | inhibition at 20 µM [1, 5] [%] | cytotoxicity at 20 µM (HT-29 cells; [2]) [%] | cytotoxicity at 20 µM (HT-29 cells; [3]) [%] | cytotoxicity at 20 µM (NIH-3T3 cells; [6]) [%] | Percentage of cell death % 48h, NIH3T3 (NIH-3T3 cells) [%] | other results
1 | CCc1c(Cl)c(O)c(Cl)c(O)c1C(=O)O[C@H]1[C@H](O)[C@H](OC)[C@H](OC/C2=C\C=C\C[C@H](O)/C(C)=C/[C@H](CC)[C@@H](O[C@@H]3OC(C)(C)[C@@H](OC(=O)C(C)C)[C@H](O)[C@@H]3O)/C(C)=C/C(C)=C/C[C@@H]([C@@H](C)O)OC2=O)O[C@@H]1C [Fidaxomicin] | 32.5 | 32.5 | 2.31 | 52.8 | 1.82 | 1.5823 | –
2 | CC[C@H](c1ccc(O)cc1)[C@@H](CC)c1ccc(O)cc1 [Hexestrol] | 36.7 | 36.7 | 1.37 | 3.31 | 5.47 | 3.549 | –
3 | Cc1cc(Nc2ncc(Cl)c(Nc3ccccc3S(=O)(=O)C(C)C)n2)c(OC(C)C)cc1C1CCNCC1 [LDK378] | 46.5 | 46.5 | 92.1 | 89.8 | 80.9 | 75.6563 | –
4 | CC1(C)Cc2c(-c3ccccc3)c(-c3ccc(Cl)cc3)c(CC(=O)O)n2C1 [Licofelone] | 33 | 33 | 2.67 | 3.98 | 0.823 | 0.4583 | –
5 | NC(=O)N1CCC(CC(=O)N2CCC([C@H]3c4ncc(Br)cc4CCc4cc(Cl)cc(Br)c43)CC2)CC1 [Lonafarnib] | 40.6 | 40.6 | 1.12 | 1.7 | 36.3 | 40.7575 | –
6 | Clc1ccc(COC(Cn2ccnc2)c2ccc(Cl)cc2Cl)c(Cl)c1 (stereo not shown) [Miconazole Nitrate] | – | – | – | – | – | 6.033 | Percentage of cell death % 24h HT-29 (HT-29 cells; 20 µM, 24 h): 5.26%; Percentage of cell death % 48h, HT-29 (HT-29 cells; HT-29, 48h, 20 μM): 9.591%; BRET reduction on NIH-3T3 [1, 7]: 52.8386; BRET reduction on NIH-3T3 [1, 8]: 52.8386; Percentage of cell death % 24h NIH3t3 (NIH-3T3 cells; 20 µM, 24 h): 12.1676%
7 | Clc1ccc(COC(Cn2ccnc2)c2ccc(Cl)cc2Cl)c(Cl)c1 (stereo not shown) [Miconazole] | 48.7 | 48.7 | 2.78 | 5.75 | – | 3.437 | Percentage of cell death % 24h NIH3t3 (NIH-3T3 cells; 20 µM, 24 h): 6.07%
8 | Clc1ccc(C(c2ccccc2Cl)C(Cl)Cl)cc1 (stereo not shown) [Mitotane (Lsodren), Mitotane] | 25.6 | 25.6 | 0.553 | 1.62 | 25.3 | 5.575 | –
9 | O=C1c2c(O)ccc(O)c2C(=O)c2c(NCCNCCO)ccc(NCCNCCO)c21 [Mitoxantrone HCl] | 25.5 | 25.5 | 0 | 0.0037 | 0.018 | 0 | –
10 | CC(C)(O)c1ccccc1CC[C@@H](SCC1(CC(=O)O)CC1)c1cccc(/C=C/c2ccc3ccc(Cl)cc3n2)c1 [Montelukast Sodium] | 30.9 | 30.9 | 0.524 | 1.19 | 14.8 | 2.7667 | –
11 | CC[C@H]1[C@@H](O)[C@@H]2[C@H](CC[C@]3(C)[C@@H]([C@H](C)CCC(=O)O)CC[C@@H]23)[C@@]2(C)CC[C@@H](O)C[C@@H]12 [Obeticholic Acid] | 36.4 | 36.4 | 0.566 | 1.41 | 1.16 | 0.273 | –
12 | CCOc1cc(CC(=O)N[C@@H](CC(C)C)c2ccccc2N2CCCCC2)ccc1C(=O)O [Repaglinide] | 28.4 | 28.4 | 0.354 | 1.01 | 0.236 | 0.185 | –
13 | CC(C)=CCC/C(C)=C/CC/C(C)=C/CSc1ccccc1C(=O)O [Salirasib] | 45.5 | 45.5 | 0.693 | 1.28 | 3.71 | 1.2519 | –
14 | Clc1ccc(C(Cn2ccnc2)OCc2csc3c(Cl)cccc23)c(Cl)c1 (stereo not shown) [Sertaconazole nitrate] | 46.8 | 46.8 | 2.46 | 4.64 | 4.15 | 10.0161 | –
15 | CC/C(=C(\c1ccccc1)c1ccc(OCCN(C)C)cc1)c1ccccc1 [Tamoxifen] | – | – | – | – | – | 78.8324 | Percentage of cell death % 24h HT-29 (HT-29 cells; 20 µM, 24 h): 3.365%; Percentage of cell death % 48h, HT-29 (HT-29 cells; HT-29, 48h, 20 μM): 61.8661%; %Cell death HT-29 (HT-29 cells; HT-29, time not given): 63.3%; BRET reduction on NIH-3T3 [1, 7]: 54.2923; BRET reduction on NIH-3T3 [1, 8]: 54.2923; Percentage of cell death % 24h NIH3t3 (NIH-3T3 cells; 20 µM, 24 h): 81.9489%
16 | Cn1cncc1[C@@](N)(c1ccc(Cl)cc1)c1ccc2c(c1)c(-c1cccc(Cl)c1)cc(=O)n2C [Tipifarnib (Zarnestra), Tipifarnib] | – | – | – | – | – | 52.702 | cytotoxicity at 20 µM (HT-29 cells; HT-29, 24 h, read-out: Percentage of cell death % 24h HT-29, 20 µM, 24 h): 3.09%; cytotoxicity at 20 µM (HT-29 cells; HT-29, 48 h, read-out: Percentage of cell death % 48h, HT-29, HT-29, 48h, 20 μM): 12.9%; inhibition at 20 µM ([1]; read-out: BRET reduction on NIH-3T3, NIH-3T3 cells, hits from the primary screen): 43.9%; inhibition at 20 µM ([1]; read-out: BRET reduction on NIH-3T3, NIH-3T3 expressing BRET sensor, 20 µM, 3 h): 43.9%; cytotoxicity at 20 µM (NIH-3T3 cells; read-out: Percentage of cell death % 24h NIH3t3, 20 µM, 24 h): 65.9%

The next lines start with results.

Row | inhibition [1, 4] [%] | inhibition at 20 µM [1, 5] [%] | Structure (SMILES) | cytotoxicity at 20 µM (HT-29 cells; [2]) [%] | cytotoxicity at 20 µM (HT-29 cells; [3]) [%] | cytotoxicity at 20 µM (NIH-3T3 cells; [6]) [%] | Percentage of cell death % 48h, NIH3T3 (NIH-3T3 cells) [%] | other results
17 | 26 | 26 | C=CC[C@@H]1/C=C(\C)C[C@H](C)C[C@H](OC)[C@H]2O[C@@](O)(C(=O)C(=O)N3CCCC[C@H]3C(=O)O[C@H](/C(C)=C/[C@@H]3CC[C@@H](O)[C@H](OC)C3)[C@H](C)[C@@H](O)CC1=O)[C@H](C)C[C@@H]2OC [Tacrolimus (FK506), Tacrolimus] | 0.958 | 2.46 | 0.808 | 0.523 | –
18 | 51.8 | 51.8 | CC/C(=C(\c1ccccc1)c1ccc(OCCN(C)C)cc1)c1ccccc1 [Tamoxifen Citrate] | 5.86 | 63.3 | 76.5 | 76.3192 | –
19 | 27.4 | 27.4 | CSc1ccc2c(c1)N(CCC1CCCCN1C)c1ccccc1S2 (stereo not shown) [Thioridazine HCl] | 1.72 | 16.7 | 83.3 | 84.4863 | –
20 | 38.3 | 38.3 | CCCCCCCCCCCCCCCC[N+](C)(C)CCN(Cc1ccc(OC)cc1)c1ncccn1 [Thonzonium Bromide] | 94.9 | 94.7 | 86.2 | 80.9399 | –
21 | – | 27.3 | Clc1ccc(C(Cn2ccnc2)OCc2ccsc2Cl)c(Cl)c1 (stereo not shown) [Tioconazole] | 2.22 | 5.98 | 7.78 | 3.795 | inhibition at 20 µM [1, 4]: 27.3%
22 | 30.9 | 30.9 | Cc1c(C)c2c(c(C)c1O)CCC(C)(COc1ccc(CC3SC(=O)NC3=O)cc1)O2 (stereo not shown) [Troglitazone] | 0.272 | 0.925 | 0.791 | 0.3187 | –
